The conditions of series [1]: cited from earlier work; for Hygroscopicity: as reported in the prior art or the CHMP report.
For series [2] the following is noted: CHMP Assessment Report for KISQALI; anhydrous form; cited from earlier work.
The nature of series [3]: Comparative intrinsic dissolution testing (Wood apparatus). Format: physicochemical. Conditions: 400 mg sample compressed at 1.5 metric tons for 1 minute, 900 mL 0.01 N HCl buffer, 75 rpm.
Procedure: Intrinsic dissolution rate (IDR) measurements were performed using a Wood apparatus. Samples were prepared by compressing 400 mg sample at 1.5 metric tons for 1 minute. A dissolution medium consisting of 900 mL 0.01 N HCl buffer, and rotation speed of 75 rpm, was used for each experiment.

Structures are written as SMILES.

The values below come from US10611772B2, “Crystalline form of Ribociclib succinate” (Apotex Inc., priority 2018, dated 2020).

As for `CN(C)C(=O)c1cc2cnc(Nc3ccc(N4CCNCC4)cn3)nc2n1C1CCCC1` [Ribociclib succinate, 7-cyclopentyl-N,N-dimethyl-2-{[5-(piperazin-1-yl)pyridin-2-yl]amino}-7H-pyrrolo[2,3-d]pyrimidine-6-carboxamide], in series [1], the Hygroscopicity entry was “exhibits hygroscopicity”. Further, in series [2], the “BCS Class” value was “Class IV” and the “Solubility (BCS assessment)” value was “low solubility”.

`CN(C)C(=O)c1cc2cnc(Nc3ccc(N4CCNCC4)cn3)nc2n1C1CCCC1.O=C(O)CCC(=O)O` [Ribociclib succinate non-hydrate form]: the “Form conversion upon exposure to high humidity levels” value in series [1] (WO 2012/064805 A1) was “converts to the hydrate form”. For the same compound, in series [1], the Hygroscopicity entry is “hygroscopic”. Also, in series [3], the “Intrinsic Dissolution Rate” value came to 1.9520 mg min^−1 cm^−2.
